Measured values reported in patent US20200369630A1, “HERBICIDALLY ACTIVE 3-PHENYL-5-TRIFLUOROMETHYLISOXAZOLINE-5-CARBOXAMIDES OF CYCLOPENTYLCARBOXYLIC ACIDS AND ESTERS” (Bayer Aktiengesellschaft, priority 2017, published 2020).

Key:
Assay in all cases: Post-emergence herbicidal action
Type in all cases: in vivo
STEME: Stellaria media = conditions: Table C2, post-emergence, dosage 320 (0.32 kg of active substance per hectare), rated visually after about 3 weeks
Procedure: (§1) [table] Seeds of monocotyledonous and dicotyledonous weeds and crop plants are placed in sandy loam in plastic or wood-fiber pots, covered with soil and cultivated in a greenhouse under controlled growth conditions. 2 to 3 weeks after sowing, the test plants are treated at the one-leaf stage. The compounds of the invention, formulated in the form of wettable powders (WP) or as emulsion concentrates (EC), are then sprayed onto the green parts of the plants as aqueous suspension or emulsion with addition of 0.5% additive at a water application rate of […] (converted). After the test plants had been kept in the greenhouse under optimum growth conditions for about 3 weeks, the activity of the preparations is rated visually in comparison to untreated controls. For example, 100% activity=the plants have died, 0% activity=like control plants.

AVEFA: Avena fatua = conditions: Table C2, post-emergence, dosage 320 (0.32 kg of active substance per hectare), rated visually after about 3 weeks
Procedure: as §1

[1] = test system: ECHCG: Echinochloa crus-galli; conditions: Table C2, post-emergence, dosage 320 (0.32 kg of active substance per hectare), rated visually after about 3 weeks
Procedure: as §1

LOLRI: Lolium rigidum = conditions: rated visually after about 3 weeks
Procedure: as §1

VERPE: Veronica persica = conditions: rated visually after about 3 weeks
Procedure: as §1

[2] = test system: POLCO: Polygonum convolvulus; conditions: rated visually after about 3 weeks
Procedure: as §1

[3] = test system: AMARE: Amaranthus retroflexus; conditions: rated visually after about 3 weeks
Procedure: as §1

[4] = test system: ALOMY: Alopecurus myosuroides; conditions: rated visually after about 3 weeks
Procedure: as §1

HORMU: Hordeum murinum = conditions: rated visually after about 3 weeks
Procedure: as §1

[5] = Table C2, post-emergence, dosage 320 (0.32 kg of active substance per hectare)
[6] = Table C4, post-emergence, 320 g/ha

Row | SMILES | Herbicidal action against [%] STEME (STEME: Stellaria media) [%] | Herbicidal action against [%] AVEFA (AVEFA: Avena fatua) [%] | Herbicidal action against [%] ECHCG [1] [%] | Herbicidal action against [%] LOLRI (LOLRI: Lolium rigidum; [5]) [%] | Herbicidal action against [%] VERPE (VERPE: Veronica persica; [5]) [%] | Herbicidal action against [%] POLCO [2, 5] [%] | Herbicidal action against [%] AMARE [3, 5] [%] | Herbicidal action against [%] ALOMY [4, 5] [%] | Herbicidal action against [%] HORMU (HORMU: Hordeum murinum; [5]) [%] | Herbicidal action against [%] LOLRI (LOLRI: Lolium rigidum; [6]) [%] | Herbicidal action against [%] VERPE (VERPE: Veronica persica; [6]) [%] | Herbicidal action against [%] AMARE [3, 6] [%] | Herbicidal action against [%] ALOMY [4, 6] [%] | Herbicidal action against [%] HORMU (HORMU: Hordeum murinum; [6]) [%] | Herbicidal action against [%] POLCO [2, 6] [%]
1 | O=C(OCCCl)[C@@H]1CC[C@H](NC(=O)[C@@]2(C(F)(F)F)CC(c3cc(F)cc(F)c3)=NO2)C1 [Example I-109, 2-chloroethyl-(1R,3S)-3-({[(5R)-3-(3,5-difluorophenyl)-5-(trifluoromethyl)-4,5-dihydro-1,2-oxazol-5-yl]carbonyl}amino)cyclopentanecarboxylate] | 90 | 90 | 90 | 80 | 80 | 80 | 80 | 90 | 90 | – | – | – | – | – | –
2 | O=C(OCC(F)(F)F)C1CCC(NC(=O)C2(C(F)(F)F)CC(c3cccc(F)c3)=NO2)C1 (mixture of isomers) [Example I-423] | 100 | 100 | 100 | 100 | 90 | 90 | 90 | 100 | 100 | – | – | – | – | – | –
3 | CC(C)(C)OC(=O)[C@H]1CC[C@@H](NC(=O)C2(C(F)(F)F)CC(c3cc(F)cc(F)c3)=NO2)C1 (relative stereo) [Example I-85, tert-butyl cis-3-({[3-(3,5-difluorophenyl)-5-(trifluoromethyl)-4,5-dihydro-1,2-oxazol-5-yl]carbonyl}amino)cyclopentanecarboxylate] | – | – | – | – | – | – | – | – | – | 90 | 80 | 80 | 90 | 90 | –
4 | Cc1cc(Cl)cc(C2=NOC(C(=O)NC3CCC(C(=O)OCCCl)C3)(C(F)(F)F)C2)c1 (mixture of isomers) [Example I-838] | – | – | – | – | – | – | – | – | – | 100 | 80 | 80 | 100 | 90 | 100
5 | CCOC(=O)[C@H]1CC[C@H](NC(=O)[C@@]2(C(F)(F)F)CC(c3cc(F)cc(F)c3)=NO2)C1 [Example I-42] | 90 | 90 | 80 | 90 | 80 | 80 | 80 | 80 | 90 | – | – | – | – | – | –
6 | COC(=O)[C@H]1CC[C@H](NC(=O)C2(C(F)(F)F)CC(c3cc(F)cc(F)c3)=NO2)C1 (stereo partly drawn) [Example I-20, methyl (1S,3S)-3-({[3-(3,5-difluorophenyl)-5-(trifluoromethyl)-4,5-dihydro-1,2-oxazol-5-yl]carbonyl}amino)cyclopentanecarboxylate] | – | – | – | – | – | – | – | – | – | 90 | 90 | 80 | 80 | 90 | –
7 | COC(=O)C1CCC(NC(=O)C2(C(F)(F)F)CC(c3cccc(F)c3)=NO2)C1 (mixture of isomers) [Example I-325] | 90 | 100 | 90 | 100 | 80 | 80 | 80 | 90 | 90 | – | – | – | – | – | –
8 | O=C(O)C1CCC(NC(=O)C2(C(F)(F)F)CC(c3cccc(F)c3)=NO2)C1 (mixture of isomers) [Example I-311] | 100 | 100 | 100 | 100 | 90 | 100 | 90 | 100 | 100 | – | – | – | – | – | –
9 | CC(C)OC(=O)[C@@H]1CC[C@H](NC(=O)[C@@]2(C(F)(F)F)CC(c3cc(F)cc(F)c3)=NO2)C1 [Example I-67] | 100 | 100 | 90 | 100 | 90 | 90 | 90 | 100 | 100 | – | – | – | – | – | –
10 | COC(=O)[C@H]1CC[C@H](NC(=O)[C@@]2(C(F)(F)F)CC(c3cc(F)cc(F)c3)=NO2)C1 [Example I-28] | – | – | – | – | – | – | – | – | – | 90 | 80 | – | 80 | 90 | 80
11 | O=C(OCC(F)(F)F)[C@@H]1CC[C@H](NC(=O)[C@@]2(C(F)(F)F)CC(c3cc(F)cc(F)c3)=NO2)C1 [Example I-123] | 90 | 90 | 80 | 100 | 80 | 90 | 80 | 90 | 90 | – | – | – | – | – | –
12 | O=C(OCCCl)C1CCC(NC(=O)C2(C(F)(F)F)CC(c3cccc(F)c3)=NO2)C1 (mixture of isomers) [Example I-409] | 100 | 100 | 100 | 100 | 90 | 100 | 90 | 100 | 100 | – | – | – | – | – | –
13 | Cc1cc(Cl)cc(C2=NOC(C(=O)NC3CCC(C(=O)OCC(F)(F)F)C3)(C(F)(F)F)C2)c1 (mixture of isomers) [Example I-844] | – | – | – | – | – | – | – | – | – | 90 | 90 | – | 100 | 80 | 100
14 | CCOC(=O)C1CCC(NC(=O)C2(C(F)(F)F)CC(c3cccc(F)c3)=NO2)C1 (mixture of isomers) [Example I-339] | 100 | 100 | 100 | 100 | 90 | 100 | 100 | 100 | 100 | – | – | – | – | – | –
15 | CCOC(=O)C1CCC(NC(=O)C2(C(F)(F)F)CC(c3cc(C)cc(F)c3)=NO2)C1 (mixture of isomers) [Example I-543] | 80 | 100 | 90 | 90 | 90 | 100 | 100 | 90 | 80 | – | – | – | – | – | –
16 | COC(=O)C1CCC(NC(=O)C2(C(F)(F)F)CC(c3cc(F)c(F)c(F)c3)=NO2)C1 (mixture of isomers) [Example I-171] | 80 | 90 | 80 | 100 | 80 | 80 | 80 | 100 | 80 | – | – | – | – | – | –
17 | CCOC(=O)C1CCC(NC(=O)C2(C(F)(F)F)CC(c3cc(F)c(F)c(F)c3)=NO2)C1 (mixture of isomers) [Example I-185] | 80 | 100 | 80 | 90 | 80 | 90 | 80 | 90 | 90 | – | – | – | – | – | –
18 | CCCOC(=O)[C@@H]1CC[C@H](NC(=O)[C@@]2(C(F)(F)F)CC(c3cc(F)cc(F)c3)=NO2)C1 [Example I-53] | 100 | 100 | 100 | 100 | 90 | 100 | 90 | 100 | 100 | – | – | – | – | – | –
